Measurements from the supplement of paper PMC5908809.

Tests used:
[1] = system: normal NK cells expanded with K562-aAPC; test: drug sensitivity score (DSS) (DSS units); higher = more sensitive; extreme values may be limits of the assay; settings: 72 h; IL-2 2.5 ng/mL
Experimental: (§1)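 Drug sensitivity and resistance testing on K562-aAPC-expanded normal NK cells: 5 concentrations (10-fold steps over a 10,000-fold range), 72 h at 37 °C, viability by CellTiter-Glo normalised to DMSO and benzethonium chloride controls; DSS from the fitted curve.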

YT (IL-2 2.5 ng/mL) [2] = test: as above; settings: 72 h
IMC-1 (IL-2 20 ng/mL) [3] = test: as above; settings: 72 h
NK-92 (IL-2 2.5 ng/mL) [4] = test: as above; settings: 72 h
[5] = system: normal primary NK cells, pool 1 (3 donors), resting (IL-2 0 ng/mL); test: as above; settings: 72 h
NK-YS (IL-2 2.5 ng/mL) [6] = test: as above; settings: 72 h
KAI3 (IL-2 2.5 ng/mL) [7] = test: as above; settings: 72 h
SNK-6 (IL-2 2.5 ng/mL) [8] = test: as above; settings: 72 h
[9] = system: normal primary NK cells, pool 1 (3 donors) (IL-2 2.5 ng/mL); test: as above; settings: 72 h
KHYG-1 (IL-2 2.5 ng/mL) [10] = test: as above; settings: 72 h
DERL-7 (IL-2 2.5 ng/mL) [11] = test: as above; settings: 72 h
NKL (IL-2 2.5 ng/mL) [12] = test: as above; settings: 72 h
[13] = system: normal primary NK cells, pool 3 (3 donors) (IL-2 2.5 ng/mL); test: as above; settings: 72 h
[14] = system: normal primary NK cells, pool 2 (3 donors) (IL-2 2.5 ng/mL); test: as above; settings: 72 h
[15] = system: normal NK cells expanded with K562-aAPC; test: percent inhibition of viability; higher = more inhibition; settings: 72 h, IL-2 2.5 ng/mL
Experimental: as §1

YT (IL-2 2.5 ng/mL) [16] = test: as above; settings: 72 h
IMC-1 (IL-2 20 ng/mL) [17] = test: as above; settings: 72 h
NK-92 (IL-2 2.5 ng/mL) [18] = test: as above; settings: 72 h
[19] = system: normal primary NK cells, pool 1 (3 donors), resting (IL-2 0 ng/mL); test: as above; settings: 72 h
NK-YS (IL-2 2.5 ng/mL) [20] = test: as above; settings: 72 h
KAI3 (IL-2 2.5 ng/mL) [21] = test: as above; settings: 72 h
SNK-6 (IL-2 2.5 ng/mL) [22] = test: as above; settings: 72 h
[23] = system: normal primary NK cells, pool 1 (3 donors) (IL-2 2.5 ng/mL); test: as above; settings: 72 h
KHYG-1 (IL-2 2.5 ng/mL) [24] = test: as above; settings: 72 h
DERL-7 (IL-2 2.5 ng/mL) [25] = test: as above; settings: 72 h
NKL (IL-2 2.5 ng/mL) [26] = test: as above; settings: 72 h
[27] = system: normal primary NK cells, pool 3 (3 donors) (IL-2 2.5 ng/mL); test: as above; settings: 72 h
[28] = system: normal primary NK cells, pool 2 (3 donors) (IL-2 2.5 ng/mL); test: as above; settings: 72 h

Cc1cc(Nc2nc(N[C@@H](C)c3ncc(F)cn3)ncc2Cl)[nH]n1 [AZD1480] (max concentration tested 1000 nM)
Settings | drug sensitivity score
DERL-7 (IL-2 2.5 ng/mL) [11] | 13.7
IMC-1 (IL-2 20 ng/mL) [3] | 3.91
KAI3 (IL-2 2.5 ng/mL) [7] | 17.1
KHYG-1 (IL-2 2.5 ng/mL) [10] | 17.9
NK-92 (IL-2 2.5 ng/mL) [4] | 8.24
NK-YS (IL-2 2.5 ng/mL) [6] | 7.94
NKL (IL-2 2.5 ng/mL) [12] | 14.5
SNK-6 (IL-2 2.5 ng/mL) [8] | 12.5
YT (IL-2 2.5 ng/mL) [2] | 5.7
[1] | 12
[5] | 0
[9] | 8.59
[13] | 6.17
[14] | 7.54

percent inhibition of viability [%]
Settings | 0.1 nM | 1 nM | 10 nM | 100 nM | 1000 nM
DERL-7 (IL-2 2.5 ng/mL) [25] | 0.17 | 6.33 | 14.9 | 62 | 94.2
IMC-1 (IL-2 20 ng/mL) [17] | -4.11 | -5.28 | -12.7 | -1.83 | 73.8
KAI3 (IL-2 2.5 ng/mL) [21] | 3.55 | 2.45 | 24.7 | 77 | 87.5
KHYG-1 (IL-2 2.5 ng/mL) [24] | 0.27 | 3.46 | 15.9 | 86.6 | 95.6
NK-92 (IL-2 2.5 ng/mL) [18] | -8.05 | 3.14 | 1.52 | 28.2 | 78
NK-YS (IL-2 2.5 ng/mL) [20] | 0.27 | -0.67 | 8.06 | 35.8 | 65.3
NKL (IL-2 2.5 ng/mL) [26] | -13.4 | -3.23 | 19.8 | 65.5 | 76.2
SNK-6 (IL-2 2.5 ng/mL) [22] | -1.78 | 7.1 | 4.31 | 59.5 | 96.2
YT (IL-2 2.5 ng/mL) [16] | 2.34 | -1.75 | 1.84 | 10.8 | 70.7
[15] | -0.54 | 2.03 | 10.3 | 53.7 | 95.5
[19] | -5.75 | -9.19 | 6.02 | 2 | 2.57
[23] | -6.31 | -10.2 | 7.91 | 39.2 | 68.6
[27] | -15.9 | -5.65 | -9.13 | 21.8 | 58.1
[28] | -8.71 | -7.23 | -6.75 | 36.8 | 58

CC(=O)OC[C@H]1O[C@@H]([S-])[C@H](OC(C)=O)[C@@H](OC(C)=O)[C@@H]1OC(C)=O.CCP(CC)CC.[Au+] [Auranofin] (max concentration tested 2500 nM)
Settings | drug sensitivity score
DERL-7 (IL-2 2.5 ng/mL) [11] | 10.6
IMC-1 (IL-2 20 ng/mL) [3] | 5.76
KAI3 (IL-2 2.5 ng/mL) [7] | 3.64
KHYG-1 (IL-2 2.5 ng/mL) [10] | 7.93
NK-92 (IL-2 2.5 ng/mL) [4] | 5.5
NK-YS (IL-2 2.5 ng/mL) [6] | 6.36
NKL (IL-2 2.5 ng/mL) [12] | 11.9
SNK-6 (IL-2 2.5 ng/mL) [8] | 8.77
YT (IL-2 2.5 ng/mL) [2] | 5.39
[1] | 10.2
[5] | 23.7
[9] | 19.7
[13] | 17.4
[14] | 16.3

percent inhibition of viability [%]
Settings | 0.25 nM | 2.5 nM | 25 nM | 250 nM | 2500 nM
DERL-7 (IL-2 2.5 ng/mL) [25] | -0.63 | 7.06 | 8.16 | 44.6 | 98.2
IMC-1 (IL-2 20 ng/mL) [17] | -3.33 | -1.53 | 4.17 | 1.71 | 99.3
KAI3 (IL-2 2.5 ng/mL) [21] | -6.77 | -2.1 | -2.36 | -3.59 | 71.4
KHYG-1 (IL-2 2.5 ng/mL) [24] | 0.4 | -2.1 | 1.71 | 13.8 | 104
NK-92 (IL-2 2.5 ng/mL) [18] | -2.57 | -12.2 | -2.23 | -0.04 | 98.4
NK-YS (IL-2 2.5 ng/mL) [20] | -7.49 | -6.18 | -3.6 | 9.95 | 84.9
NKL (IL-2 2.5 ng/mL) [26] | -10.3 | -9.31 | -24.6 | 52.6 | 106
SNK-6 (IL-2 2.5 ng/mL) [22] | 13.5 | 17.1 | 4.84 | 33.2 | 86
YT (IL-2 2.5 ng/mL) [16] | -4.83 | -3.66 | 0.33 | -3.85 | 101
[15] | 1.15 | -1.41 | -0.3 | 33.5 | 100
[19] | 5.52 | -6.64 | 48.2 | 92.5 | 99.7
[23] | -6.81 | -8.13 | 21.6 | 92.8 | 100
[27] | -4.42 | 1.03 | 18.4 | 81.8 | 101
[28] | -13.4 | -6.97 | 8.16 | 82.7 | 101
